Results taken from patent publication US9089139B2, “Agri-horticultural pest control compositions comprising 4-(3-butynyl)aminopyrimidine derivatives” (SDS Biotech K. K., priority 2011, dated 2015).
Like-named read-outs stand apart in the source and are kept apart here.

Tests used:
[1] = test system: Pseudoperonospora cubensis; assay: Control effect against Pseudoperonospora cubensis on cucumber seedlings (control index as in Test 1); assay type: in vivo; details: for pest or weed control at 0.05 ppm: test concentration 0.05 ppm
Description: (§1) The expected efficacies of the combinations of the individual active compounds can be determined using Colby's formula, which is described below [Colby, S. R. “Calculating synergistic and antagonistic responses of herbicide combinations,” Weeds 15, 20-22 (1967)]: Colby's formula: E=A+B−(A×B/100) E is the predicted efficacy (control index) with reference to the untreated control when using the mixture of the active compound X at the concentration x and the active compound Y at the concentration y; A is the efficacy (control index) with respect to the untreated control when using the active compound X at the concentration x; B is the efficacy (control index) with respect to the untreated control when using the active compound […] at the concentration y.
(§2) Potted young seedlings of cucumber (variety: SAGAMI HANJIRO; in two-leaf stage) were sprayed with invention compounds formulated in accordance with Preparations and the existing antimicrobial active compounds listed in Table 3 (all compounds are identified by associated letters of the alphabet) after they were diluted with water to predetermined concentrations so that they would serve as active compounds; a spray gun was used to provide a spray rate of 15 ml per pot. After air-drying, the seedlings were inoculated with conida of Sphaerotheca fuliginea by spraying a suspension of the conida. Thereafter, the seedlings were cultivated for 14 days in a greenhouse and the percentage of diseased area was investigated for each leaf; based on the result of this investigation, the control index was calculated using the following formula: Control index={(percentage of diseased area on the untreated control−percentage of diseased area on treated sample)/percentage of diseased area on the untreated control}×100
Potted young seedlings of cucumber (variety: SAGAMI HANJIRO; in two-and-a-half leaf stage) were sprayed with invention agri-horticulatural pest control compositions formulated in accordance with Preparations and the existing antimicrobial active compounds listed in Table 5 (all compounds are identified by associated letters of the alphabet) after they were diluted with water to predetermined concentrations so that they would serve as active compounds; a spray gun was used to provide a spray rate of 15 ml per pot. After air-drying, the seedlings were inoculated with conida of Pseudoperonospora cubensis by spraying a suspension of the conida. Immediately thereafter, the seedlings were held for a day under the conditions of 21° C. and 100% humidity. The seedlings were then placed at room temperature and 3 days later, the percentage of diseased area was investigated for each leaf; based on the result of this investigation, the control index was calculated as in Test 1.

Sphaerotheca fuliginea = assay: Test 1: control effect against powdery mildew on cucumber (control index); assay type: in vivo, Sphaerotheca fuliginea on cucumber (variety: SAGAMI HANJIRO); details: individual active compound; for pest or weed control at 0.5 ppm: test concentration 0.5 ppm; for pest or weed control at 10 ppm: read-out: Control index
Description: as §1, §2

Aphis gossypii = assay: Test 3: insecticidal effect on Aphis gossypii (mortality rate); assay type: in vivo
Description: as §1
Invention compounds and the existing insecticidal active compounds shown in Table 7 (hereinbelow, the compound names are identified by associated letters of the alphabet) were diluted with water to predetermined concentrations so that they would serve as active ingredients. Cucumber leaves with a diameter of 3 cm were placed on plastic cups filled with 0.5% soft agar and five adult aphids were released to feed on the leaves. After standing overnight, the adult insects were removed and the number of nymph as an offspring was counted; each of the prepared liquid samples of insecticide was sprayed in 0.4 ml portions and two days later, the number of dead insects was countd to calculate the mortality rate. The expected efficacies of the combinations of the individual active compounds were calculated by Colby's formula.

[2] = individual active compound, test concentration 0.1 ppm
[3] = Pseudoperonospora cubensis, 72 h, individual active compound, read-out: Observed value Control index
[4] = Aphis gossypii, 48 h, individual active compound, test concentration 0.1 ppm, read-out: Observed value Mortality rate
[5] = Podosphaera fuliginea, 336 h, test concentration 1 ppm
[6] = individual active compound, test concentration 1 ppm
[7] = Podosphaera fuliginea, 336 h, test concentration 100 ppm
[8] = Podosphaera fuliginea, 336 h, test concentration 10 ppm

Molecule: COCC(=O)N(c1c(C)cccc1C)[C@H](C)C(=O)OC [Ba: Metalaxyl M, metalaxyl-M]
- Observed value Control index ([1]; individual active compound, test concentration 10 ppm): 35

Molecule: N#Cc1c(Cl)c(Cl)c(Cl)c(C#N)c1Cl [Aa: Chlorothalonil, chlorothalonil]
- pest or weed control at 0.5 ppm ([1]; Pseudoperonospora cubensis, 72 h, individual active compound, test concentration 0.5 ppm, read-out: Observed value Control index): 49%
- pest or weed control at 5 ppm (Sphaerotheca fuliginea; Podosphaera fuliginea, 336 h, test concentration 5 ppm): 48%

Molecule: CC1(C)[C@H](C(=O)O[C@H](C#N)c2cccc(Oc3ccccc3)c2)[C@@H]1/C=C\C(=O)OC(C(F)(F)F)C(F)(F)F [S: Acrinathrin]
- Observed value Mortality rate (Aphis gossypii; [2]): 35

Molecule: COCc1cc(C)ccc1C#CCCNc1ncnc2ccccc12 [compound 145]
- pest or weed control at 0.05 ppm [1, 3]: 37%
- pest or weed control at 0.5 ppm (Sphaerotheca fuliginea; Podosphaera fuliginea, 336 h): 45%
- pest or weed control at 0.1 ppm (Aphis gossypii; [4]): 35%

Molecule: CC(C)CC(C)c1sccc1NC(=O)c1cn(C)nc1C(F)(F)F (stereo not shown) [Da: Penthiopyrad, penthiopyrad]
- pest or weed control at 1 ppm (Sphaerotheca fuliginea; [5]): 51%

Molecule: FC(F)c1ccccc1C#CCCNc1ncnc2ccccc12 [compound 100]
- pest or weed control at 0.05 ppm [1, 3]: 42%
- pest or weed control at 0.5 ppm (Sphaerotheca fuliginea; Podosphaera fuliginea, 336 h): 55%
- pest or weed control at 0.1 ppm (Aphis gossypii; [4]): 40%

Molecule: CO/C=C(/C(=O)OC)c1ccccc1Oc1cc(Oc2ccccc2C#N)ncn1 [Ea: Azoxystrobin, azoxystrobin]
- Observed value Control index [1, 6]: 45
- Control index (Sphaerotheca fuliginea; test concentration 100 ppm): 21

Molecule: COCc1ccccc1C#CCCNc1ncnc2ccccc12 [compound 133]
- pest or weed control at 0.05 ppm [1, 3]: 41%
- pest or weed control at 0.5 ppm (Sphaerotheca fuliginea; Podosphaera fuliginea, 336 h): 49%
- pest or weed control at 0.1 ppm (Aphis gossypii; [4]): 39%

Molecule: FCC1=C(C#CCCNc2ncnc3ccccc23)CCCC1 [compound 391]
- pest or weed control at 0.05 ppm [1, 3]: 41%
- pest or weed control at 0.5 ppm (Sphaerotheca fuliginea; Podosphaera fuliginea, 336 h): 48%
- pest or weed control at 0.1 ppm (Aphis gossypii; [4]): 43%

Molecule: CO/N=C(/C(=O)OC)c1ccccc1COc1ccccc1C [Eb: Kresoxim-methyl, kresoxim-methyl]
- pest or weed control at 1 ppm ([1]; Pseudoperonospora cubensis, 72 h, individual active compound, test concentration 1 ppm, read-out: Observed value Control index): 42%
- pest or weed control at 100 ppm (Sphaerotheca fuliginea; [7]): 29%

Molecule: N#CCNC(=O)c1cnccc1C(F)(F)F [T: Flonicamid, flonicamid, reference compound]
- Observed value Mortality rate (Aphis gossypii; [6]): 43

Molecule: COc1ccc(C(=CC(=O)N2CCOCC2)c2ccc(Cl)cc2)cc1OC [Ja: Dimethomorph, dimethomorph]
- pest or weed control at 5 ppm ([1]; Pseudoperonospora cubensis, 72 h, individual active compound, test concentration 5 ppm, read-out: Observed value Control index): 21%

Molecule: CC(C)(C)C(O)(CCc1ccc(Cl)cc1)Cn1cncn1 (stereo not shown) [Hb: Tebuconazole, tebuconazole]
- pest or weed control at 10 ppm (Sphaerotheca fuliginea; [8]): 42%

Molecule: C#CCOc1ccc(CCNC(=O)C(OCC#C)c2ccc(Cl)cc2)cc1OC (stereo not shown) [Jc: Mandipropamid, mandipropamid]
- Observed value Control index ([1]; individual active compound, test concentration 0.5 ppm): 21

Molecule: COC(=O)NC(=S)Nc1ccccc1NC(=S)NC(=O)OC [Ca: Thiophanate-methyl, thiophanate-methyl]
- pest or weed control at 2 ppm (Sphaerotheca fuliginea; Podosphaera fuliginea, 336 h, test concentration 2 ppm): 40%

Molecule: COC(=O)N(OC)c1ccccc1COc1ccn(-c2ccc(Cl)cc2)n1 [Ed: Pyraclostrobin, pyraclostrobin]
- pest or weed control at 100 ppm (Sphaerotheca fuliginea; [7]): 22%

Molecule: CC(=O)N1C(=O)N(NCc2cccnc2)Cc2cc(C(F)(C(F)(F)F)C(F)(F)F)ccc21 [U: Pyrifluquinazon, pyrifluquinazon, reference compound]
- Observed value Mortality rate (Aphis gossypii; individual active compound, test concentration 0.01 ppm): 40

Molecule: OCC1=C(C#CCCNc2ncnc3ccccc23)CCCC1 [compound 390]
- pest or weed control at 0.05 ppm [1, 3]: 38%
- pest or weed control at 0.5 ppm (Sphaerotheca fuliginea; Podosphaera fuliginea, 336 h): 51%
- pest or weed control at 0.1 ppm (Aphis gossypii; [4]): 41%

Molecule: FC(F)(F)c1ccccc1C#CCCNc1ncnc2ccccc12 [compound 101]
- pest or weed control at 0.05 ppm [1, 3]: 38%
- pest or weed control at 0.5 ppm (Sphaerotheca fuliginea; Podosphaera fuliginea, 336 h): 56%
- pest or weed control at 0.1 ppm (Aphis gossypii; [4]): 36%

Molecule: CCc1nn(C)c(C(=O)NCc2ccc(Oc3ccc(C)cc3)cc2)c1Cl [R: Tolfenpyrad, tolfenpyrad, reference compound]
- pest or weed control at 0.5 ppm (Aphis gossypii; Aphis gossypii, 48 h, individual active compound, test concentration 0.5 ppm, read-out: Observed value Mortality rate): 48%

Molecule: COc1ccccc1N1CCS/C1=C(/C#N)Sc1cc(C(F)(F)F)ccc1F [Nd: Flutianil, flutianil]
- Control index (Sphaerotheca fuliginea; test concentration 1 ppm): 42

Molecule: FCc1ccccc1C#CCCNc1ncnc2ccccc12 [compound 99]
- pest or weed control at 0.05 ppm [1, 3]: 46%
- pest or weed control at 0.5 ppm (Sphaerotheca fuliginea; Podosphaera fuliginea, 336 h): 53%
- pest or weed control at 0.1 ppm (Aphis gossypii; [4]): 44%

Molecule: Cc1c(Br)c2ccc(F)cc2n1S(=O)(=O)c1ncn(S(=O)(=O)N(C)C)n1 [Fc: Amisulbrom, amisulbrom]
- Observed value Control index [1, 2]: 37

Molecule: CCNC(=O)NC(=O)/C(C#N)=N/OC [Na: Cymoxanil, cymoxanil]
- pest or weed control at 10 ppm ([1]; Pseudoperonospora cubensis, 72 h, individual active compound, test concentration 10 ppm, read-out: Observed value Control index): 45%

Molecule: CCC(Nc1ncnc(C)c1Cl)c1ccc(OC(F)F)cc1 (stereo not shown) [Fa: Diflumetorim, diflumetorim]
- pest or weed control at 1 ppm (Sphaerotheca fuliginea; [5]): 42%

Molecule: O=[N+]([O-])NC1=NCCN1Cc1ccc(Cl)nc1 [Q: Imidacloprid, imidacloprid, reference compound]
- pest or weed control at 0.01 ppm (Aphis gossypii; Aphis gossypii, 48 h, individual active compound, test concentration 0.01 ppm, read-out: Observed value Mortality rate): 50%

Molecule: CC(Cc1ccc(C(C)(C)C)cc1)CN1C[C@@H](C)O[C@@H](C)C1 (stereo partly shown) [He: Fenpropimorph, fenpropimorph]
- pest or weed control at 100 ppm (Sphaerotheca fuliginea; [7]): 12%

Molecule: COCc1cc(F)ccc1C#CCCNc1ncnc2ccccc12 [compound 139]
- pest or weed control at 0.05 ppm [1, 3]: 43%
- pest or weed control at 0.5 ppm (Sphaerotheca fuliginea; Podosphaera fuliginea, 336 h): 51%
- pest or weed control at 0.1 ppm (Aphis gossypii; [4]): 41%

Molecule: COP(=O)(NC(C)=O)SC (stereo not shown) [P: Acephate, acephate, reference compound]
- pest or weed control at 10 ppm (Aphis gossypii; Aphis gossypii, 48 h, read-out: Observed value Mortality rate): 47%

Molecule: CCCOC/C(=N\c1ccc(Cl)cc1C(F)(F)F)n1ccnc1 [Hd: Triflumizole, triflumizole]
- pest or weed control at 10 ppm (Sphaerotheca fuliginea; [8]): 39%

Molecule: CC(C)OC(=O)N[C@H](C(=O)N[C@H](C)c1nc2ccc(F)cc2s1)C(C)C [Jb: Benthiavalicarb-isopropyl, benthiavalicarb]
- pest or weed control at 0.5 ppm ([1]; Pseudoperonospora cubensis, 72 h, read-out: Observed value Control index): 12%

Molecule: CC1COC(Cn2cncn2)(c2ccc(Oc3ccc(Cl)cc3)cc2Cl)O1 (stereo not shown) [Ha: Difenoconazole, difenoconazole]
- pest or weed control at 10 ppm (Sphaerotheca fuliginea; [8]): 27%

Molecule: CSC(=O)c1cccc2nnsc12 [Ma: Acibenzolar-S-methyl, acibenzolar-5-methyl]
- Control index (Sphaerotheca fuliginea; test concentration 10 ppm): 38

Molecule: CCCCCCCCCCCCc1ccc(S(=O)(=O)O)cc1.CCCCCCCCCCCCc1ccc(S(=O)(=O)O)cc1.CCCCCCCCCCCCc1ccc(S(=O)(=O)O)cc1.NC(N)=NCCCCCCCCNCCCCCCCCN=C(N)N [Ab: Iminoctadine albesilate, iminoctadine albesilate]
- Control index (Sphaerotheca fuliginea; test concentration 2 ppm): 41

Molecule: Cc1ccc(-c2c(Cl)nc(C#N)n2S(=O)(=O)N(C)C)cc1 [Fb: Cyazofamid, cyazofamid]
- pest or weed control at 0.1 ppm ([1]; Pseudoperonospora cubensis, 72 h, individual active compound, test concentration 0.1 ppm, read-out: Observed value Control index): 50%

Molecule: CON=C(C(=O)OC)c1ccccc1CON=C(C)c1cccc(C(F)(F)F)c1 [Ec: Trifloxystrobin, trifloxystrobin]
- pest or weed control at 100 ppm (Sphaerotheca fuliginea; [7]): 24%

Molecule: O=C(Cc1ccccc1)N/C(=N\OCC1CC1)c1c(C(F)(F)F)ccc(F)c1F [Nc: Cyflufenamid, cyflufenamid]
- pest or weed control at 1 ppm (Sphaerotheca fuliginea; [5]): 49%

Molecule: CC(C)(C)C(=O)C(Oc1ccc(Cl)cc1)n1cncn1 (stereo not shown) [Hc: Triadimefon, triadimefon]
- pest or weed control at 100 ppm (Sphaerotheca fuliginea; [7]): 21%

Molecule: mancozeb [Ac: Manzeb]
- Observed value Control index [1, 6]: 52

Molecule: COCc1cc(Cl)ccc1C#CCCNc1ncnc2ccccc12 [compound 140]
- pest or weed control at 0.05 ppm [1, 3]: 45%
- pest or weed control at 0.5 ppm (Sphaerotheca fuliginea; Podosphaera fuliginea, 336 h): 48%
- pest or weed control at 0.1 ppm (Aphis gossypii; [4]): 43%
